Experimental findings from patent US9056835B2, “LPA2 receptor-specific benzoic acid derivatives” (University of Tennessee Research Foundation, priority 2012, dated 2015) are described below.

In one assay the target is GPR87 (Homo sapiens, UniProt Q9BY21). As to the kind of experiment: LPA receptor-mediated Ca2+ mobilization assay, GPR87. The class given is cell-based. The note with it: for pEC50: agonist, Ca2+ mobilization; for inhibition of GPR87 Ca2+ response: 10 μM, ~EC75 LPA 18:1; for GPR87 Imax (%): inhibition by 10 μM compound of ~EC75 LPA 18:1 Ca2+ response. How it is done:
(§1) Similarity searches were performed separately using each fingerprint to quantitate similarity. Hits meeting the 80% similarity threshold from each search were ranked based on the Tanimoto coefficient measure of similarity to a target molecule NSC12404, and the top 75 unique hits from each fingerprint search were selected for further analysis. The 225 compounds selected for further analysis were clustered based on Tanimoto coefficients calculated using Molecular ACCess System-key fingerprints (MACCS keys) and evaluated using the diversity subset function implemented in MOE. This selected a diverse subset of 27 compounds for biological evaluation by choosing the middle compounds in each cluster. These 27 compounds were tested in Ca^2+ mobilization assays at a concentration of 10 μM using stable cell lines individually expressing LPA2 and also in vector-transfected control cells. Hits activating LPA2 were further tested using cells expressing the other established and putative LPA GPCRs. Experimental testing of the selected compounds identified the three new selective LPA2 agonists: GRI977143, H2L5547924, and H2L5828102. […] They arbitrarily selected GRI977143 for further characterization in cell-based assays.
(§2) J Biol Chem (2009) 284(25): 17304-17319). […] The cells were loaded with Fura-2-acetoxymethyl esther (Fura-2/AM) in Krebs buffer containing 0.01% pluronic acid for 30 min and rinsed with Krebs buffer before measuring Ca^2+ mobilization. The ratio of peak emissions at 510 nm after 2 min of ligand addition was determined for excitation wavelengths of 340 nm/380 nm. All samples were run in quadruplicate. […] The half maximally effective concentration (EC50), and inhibitory constant (Ki) values were calculated by fitting a sigmoid function to dose-response data points using KaleidaGraph software (version 4.1, Synergy Software; […]).
Mouse embryonic fibroblast (MEF) cells were isolated from E13.5 LPA1&2 double knockout (DKO) embryos. MEFs were transduced with empty vector or LPA2-containing lentiviruses and selected with 1.5 μg/ml puromycin. Cells were maintained in Dulbecco's modified Eagle medium (DMEM) supplemented with 10% (V/V) fetal bovine serum (FBS), 2 mM L-glutamine, 100 U/mL penicillin, and 100 μg/mL streptomycin. Serum-free medium contained 0.1% (W/V) BSA in DMEM. The rat intestinal epithelial cell line 6 (IEC-6) was obtained from the American Type Culture Collection (Rockville, Md.) at passage 13; passages 16-21 were used in all experiments. IEC-6 cells were maintained in a humidified 37° C. incubator in an atmosphere of 90% air and 10% CO2. Growth medium consisted of DMEM supplemented with 5% heat inactivated FBS, 10 μg/mL insulin, and 50 μg/mL gentamycin. The composition of the serum-starvation medium was the same as that of the full growth medium except that it contained no FBS. The McArdle rat hepatoma cell line (RH7777) stably expressing LPA2 receptors was a gift from Dr. Fumikazu Okajima (Gunma University, Maebashi, Japan). RH7777 cells stably expressing LPA1 or LPA3 receptors were generated in-house and had been characterized earlier. Wild type and LPA receptor (LPAR) stably transfected RH7777 cells were grown in DMEM supplemented with 10% FBS and 2 mM L-glutamine in the presence of 250 μg/ml G418. Chinese hamster ovary (CHO) cells stably expressing either vector or LPA4 receptor were a kind gift from Dr. Takao Shimizu (Tokyo University; Tokyo, Japan). Cells were cultured in Ham's F12 medium containing 10% FBS, 2 mM L-glutamine, and 350 μg/ml G418. Rat neuroblastoma cells (B103) were transduced with the lentivirus harboring wild type of FLAG-LPA5 and selected with puromycin to establish the stable cell lines. The stable cells were maintained in DMEM supplemented with 10% FBS and 0.4 μg/ml puromycin. GPR87- and P2Y10-expressing CHO cells and vector-transfected control cells were a gift from Dr. Norihisha Fujita (Ritsumeikan University; Shiga, Japan). […]

The next assay concerns the target T1, LPA5 (Homo sapiens, UniProt Q9H1C0).
T1 construct: FLAG (N); expressed in transfected cells; host or cells: B103 rat neuroblastoma, lentiviral transduction, puromycin selection
As to the kind of experiment: LPA receptor-mediated Ca2+ mobilization assay, LPA5. Type of assay: cell-based. Conditions: agonist. As to the method: as §1, with “GPCRs.” for “GPCRs. Experimental testing of the selected compounds identified the three new selective LPA2 agonists: GRI977143, H2L5547924, and H2L5828102.”
as §2
Mouse embryonic fibroblast (MEF) cells were isolated from E13.5 LPA1&2 double knockout (DKO) embryos. MEFs were transduced with empty vector or LPA2-containing lentiviruses and selected with 1.5 μg/ml puromycin. Cells were maintained in Dulbecco's modified Eagle medium (DMEM) supplemented with 10% (V/V) fetal bovine serum (FBS), 2 mM L-glutamine, 100 U/mL penicillin, and 100 μg/mL streptomycin. Serum-free medium contained 0.1% (W/V) BSA in DMEM. The rat intestinal epithelial cell line 6 (IEC-6) was obtained from the American Type Culture Collection (Rockville, Md.) at passage 13; passages 16-21 were used in all experiments. IEC-6 cells were maintained in a humidified 37° C. incubator in an atmosphere of 90% air and 10% CO2. Growth medium consisted of DMEM supplemented with 5% heat inactivated FBS, 10 μg/mL insulin, and 50 μg/mL gentamycin. The composition of the serum-starvation medium was the same as that of the full growth medium except that it contained no FBS. […]

pEC50: −log10 of the molar value. Where only a bound is given, the exact number is not on record here.

Usually pEC50 stands for −log10 of the EC50, conventionally taken in molar units.

GPR87, sequence (Q9BY21 whole entry): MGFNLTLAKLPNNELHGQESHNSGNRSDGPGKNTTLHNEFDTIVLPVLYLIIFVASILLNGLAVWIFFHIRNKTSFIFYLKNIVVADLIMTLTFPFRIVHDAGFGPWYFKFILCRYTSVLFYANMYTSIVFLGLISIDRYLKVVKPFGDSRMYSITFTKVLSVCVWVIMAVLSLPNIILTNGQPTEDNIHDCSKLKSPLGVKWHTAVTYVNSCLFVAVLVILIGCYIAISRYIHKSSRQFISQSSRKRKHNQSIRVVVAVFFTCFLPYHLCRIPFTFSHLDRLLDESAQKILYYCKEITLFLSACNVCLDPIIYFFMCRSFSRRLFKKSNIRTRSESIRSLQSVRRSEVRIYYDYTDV
T1 sequence (Q9H1C0 whole entry, species assumed): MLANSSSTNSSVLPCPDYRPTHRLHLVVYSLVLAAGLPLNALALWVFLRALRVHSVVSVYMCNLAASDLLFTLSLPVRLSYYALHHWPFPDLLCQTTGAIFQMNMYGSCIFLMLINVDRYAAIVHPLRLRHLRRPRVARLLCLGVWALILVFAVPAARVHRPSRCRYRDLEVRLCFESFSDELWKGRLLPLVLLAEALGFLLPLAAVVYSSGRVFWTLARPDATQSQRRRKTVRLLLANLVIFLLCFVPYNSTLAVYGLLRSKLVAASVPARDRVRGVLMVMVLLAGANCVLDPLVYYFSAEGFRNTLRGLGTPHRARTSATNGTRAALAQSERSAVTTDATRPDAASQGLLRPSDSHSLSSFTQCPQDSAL

In the case of `CCCCCCCC/C=C\CCCCCCCC(=O)OC[C@@H](O)COP(=O)(O)O` [LPA 18:1, Lysophosphatidic acid (18:1)], the pEC50 on GPR87 is 7.31.

Take `O=C(O)c1cc(Cl)c(Cl)cc1C(=O)Nc1ccc2c(c1)C(=O)c1ccccc1-2` [Compound H2L5547924]: the negative logarithm of the EC50 (pEC50) on LPA5 was less than 5.00. Also, at GPR87, the “inhibition of GPR87 Ca2+ response” value was “partially inhibited” and the “GPR87 Imax (%)” value came to 31%.

Turning to `O=C(O)c1ccccc1C(=O)Nc1ccc2c(c1)C(=O)c1ccccc1C2=O` [Compound H2L5828102], the pEC50 on LPA5 is less than 5.00. Moreover, on GPR87, the “inhibition of GPR87 Ca2+ response” value is “partially inhibited” and the “GPR87 Imax (%)” value is reported as 21%.

As to `O=C(O)c1ccccc1C(=O)Nc1ccc2c(c1)C(=O)c1ccccc1-2` [NSC12404], the pEC50 at LPA5 and at GPR87 was less than 5.00 throughout.

Take `O=C(O)c1ccccc1SCCCN1C(=O)c2cccc3cccc(c23)C1=O` [GRI977143]: at GPR87, the negative logarithm of the EC50 (pEC50) was less than 5.00.

Turning to octadecenyl thiophosphate [OTP], the negative-log EC50 (pEC50) at LPA5 is 8.52; at GPR87, 5.52.
